Test results from US11331302B2, “Transmucosal delivery of tocotrienol” (INVICTUS BIOTECHNOLOGY PTY LTD., priority 2012, dated 2022).

Assays:
[1] = biological target: T1, alpha-tocopherol transport protein (a-TTP) (Rattus norvegicus, UniProt P41034); conditions: alpha-tocopherol = 100%; cited from earlier work
T1 sequence (P41034 1-278): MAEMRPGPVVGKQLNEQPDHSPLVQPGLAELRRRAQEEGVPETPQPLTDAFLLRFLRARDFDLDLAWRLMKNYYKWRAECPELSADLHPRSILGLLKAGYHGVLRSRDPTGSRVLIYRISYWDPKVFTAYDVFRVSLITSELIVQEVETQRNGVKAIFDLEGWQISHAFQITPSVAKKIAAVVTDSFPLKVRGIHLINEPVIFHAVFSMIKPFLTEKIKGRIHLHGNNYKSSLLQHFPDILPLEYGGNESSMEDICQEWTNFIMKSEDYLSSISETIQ

[2] = in vivo
Experimental: FIG. 9: Appearance of blood plasma concentrations using gel and tablet sublingual formulations of a 40 mg dose of tocotrienols. Delta tocotrienol (delta-T3) and gamma tocotrienol (gamma-T3) levels were measured in plasma at time points up to 180 minutes from administration of the gel or tablet (tab) formulation.
A test was carried out in 2 subjects who administered 40 mg tocotrienols in 2 ml of gel sublingually. Blood samples were collected from a forearm venous catheter before administration and at 15, 60, and 180 minutes after administration.

[3] = Plasma tocotrienol levels after sublingual tablets; format: in vivo, human; conditions: 4×10 mg tablets sublingually, 2 subjects
Experimental: A 220 mg sublingual tablet formulation was prepared containing a dose of 10 mg tocotrienol comprised of the actives: delta-tocotrienol 9 mg, gamma tocotrienol 1 mg; and the following excipients: dextrose, mannitol, marine gelatin, 1-leucine, 1-arginine, pre-gel starch, PEG-200, propylene glycol, talc, silica dioxide, magnesium stearate, carotenoids.
A test was carried out on 2 subjects who dissolved 4×10 mg tablets sublingually.

[4] = humans; same dose of tocotrienol preparations; cited from earlier work
[5] = animal study, estimated; cited from earlier work

## Cc1c(C)c2c(c(C)c1O)CC[C@@](C)(CCC[C@H](C)CCC[C@H](C)CCCC(C)C)O2 [alpha-tocopherol]
[1]
  relative affinity towards a-TTP: 100%

## CC(C)=CCC/C(C)=C/CC/C(C)=C/CC[C@]1(C)CCc2cc(O)cc(C)c2O1 [delta tocotrienol]
[2]
  ratio of delta to gamma tocotrienol levels in plasma: 9:1

## Cc1cc(O)cc2c1O[C@](C)(CCC[C@H](C)CCC[C@H](C)CCCC(C)C)CC2 [delta-tocopherol]
[1]
  relative affinity towards a-TTP: 2%

## CC(C)=CCC/C(C)=C/CC/C(C)=C/CC[C@]1(C)CCc2cc(O)c(C)c(C)c2O1 [gamma tocotrienol]
[3]; 20 minute point
  plasma level: 0.8 µM
[3]; 1 h
  plasma level: 0.4 µM
[3]; 2 h
  plasma level: 0.19 µM
[3]; 3 h
  plasma level: 0.07 µM
[1]
  relative affinity towards a-TTP: 9%

## alpha-tocotrienol
[4]
  plasma concentration, fold higher than that of gamma-tocotrienol: 2 fold
  plasma concentration, times higher than delta-tocotrienol: ~10 times
[1]
  relative affinity towards a-TTP: 12%

## tocopherol
[5]
  oral bioavailability: 36%
